Experimental data: patent US9878982B2, “Pyridine derivatives and anti-mycobacterial use thereof” (priority 2014, dated 2018)
≈ marks a conversion by molar mass, not a printed value.

Tests used:
M. tuberculosis H37R = experiment: microbe, parasite or virus in culture; type: cell-based, Mycobacterium tuberculosis; conditions: for MIC: Mycobacterium tuberculosis, H37R, read-out: M. tuberculosis H37R LORA (MIC)
[1] = test system: Mycobacterium smegmatis strain ATCC19420; experiment: In vitro efficacy test using Mycobacterium smegmatis strain ATCC19420 (MIC); type: cell-based; conditions: CA-MHB + 0.02% Tween 80, 30° C., read after 72 hours; for MIC: Mycolicibacterium smegmatis, ATCC19420, 72 h
Vero Cell = experiment: Vero cell cytotoxicity (IC50); type: cell-based; conditions: African green monkey kidney cells; for IC50: Chlorocebus sabaeus, Vero
M. tuberculosis H37Rv = experiment: In vitro efficacy test using the H37Rv strain, Microplate Alamar Blue Assay (MABA) MIC; type: cell-based, Mycobacterium tuberculosis; conditions: aerobic, 7H9 medium, Alamar Blue; for MIC: Mycobacterium tuberculosis, H37RV, read-out: M. tuberculosis H37Rv MABA (MIC)
Hela = Hela cell cytotoxicity (CC50); conditions: human cervical cancer cells; half of the toxic concentration
[2] = Hela cell cytotoxicity (CC50); conditions: human, HeLa cells (human cervical cancer cells), CC50_Hela, half of the toxic concentration

| Compound | M. tuberculosis H37R LORA (MIC) (M. tuberculosis H37R) | M. smegmatis ATCC19420 MIC [1] | Vero Cell (IC50) (Vero Cell) | M. tuberculosis H37Rv MABA (MIC) (M. tuberculosis H37Rv) | CC50_Hela (Hela) | MIC (M. tuberculosis H37R) | MIC [1] | IC50 (Vero Cell) | MIC (M. tuberculosis H37Rv) | CC50 [2] |
| --- | --- | --- | --- | --- | --- | --- | --- | --- | --- | --- |
| COc1ncc(C2CCCC2)cc1C(c1ccccc1)C(O)(CCN(C)C)c1cccc2ccccc12 (centres unmarked) [Compound 64] | 3.06 µg/mL | 0.5 µg/mL | >50 µg/mL | 2.33 µg/mL | 28.75 µg/mL (≈ 58.1 µM) |  |  |  |  |  |
| COc1ccc(C(c2cc(-c3ccccc3)cnc2OC)C(O)(CCN(C)C)c2ccccc2)cc1 (centres unmarked) [Compound 237, 4-(dimethylamino)-1-(2-methoxy-5-phenylpyridin-3-yl)-1-(4-methoxyphenyl)-2-phenylbutan-2-ol] |  |  |  |  |  | 3.07 µg/mL (≈ 6.36 µM) | 0.5 µg/mL | 24.3 µg/mL (≈ 50.3 µM) | 1.89 µg/mL (≈ 3.92 µM) | 15.6 µg/mL (≈ 32.4 µM) |
| COc1ncc(-c2csc(Cl)c2)cc1C(c1ccccc1)C(O)(CCN(C)C)c1cccc2ccccc12 (centres unmarked) [Compound 245, 1-(5-(5-chlorothiophen-3-yl)-2-methoxypyridin-3-yl)-4-(dimethylamino)-2-(naphthalen-1-yl)-1-phenylbutan-2-ol] |  |  |  |  |  | 1.39 µg/mL (≈ 2.56 µM) | ≤ 0.0625 µg/mL | > 32 µg/mL | 0.86 µg/mL (≈ 1.58 µM) | > 64 µg/mL |
| COc1ncc(-c2ccsc2Cl)cc1C(c1ccccc1)C(O)(CCN(C)C)c1cccc2ccccc12 (centres unmarked) [Compound 251, 1-(5-(2-chlorothiophen-3-yl)-2-methoxypyridin-3-yl)-4-(dimethylamino)-2-(naphthalen-1-yl)-1-phenylbutan-2-ol] |  |  |  |  |  | 1.39 µg/mL (≈ 2.56 µM) | 0.25 µg/mL | > 32 µg/mL | 0.64 µg/mL (≈ 1.18 µM) | > 64 µg/mL |
| COc1ncc(C2CCSCC2)cc1C(c1ccccc1)C(O)(CCN(C)C)c1cccc2ccccc12 (centres unmarked) [Compound 255, 4-(dimethylamino)-1-(2-methoxy-5-(tetrahydro-2H-thiopyran-4-yl)pyridin-3-yl)-2-(naphthalen-1-yl)-1-phenylbutan-2-ol] |  |  |  |  |  | 8.33 µg/mL (≈ 15.8 µM) | 0.25 µg/mL | > 32 µg/mL | 0.48 µg/mL (≈ 0.911 µM) | > 64 µg/mL |
| COc1ncc(C2=CCSCC2)cc1C(c1ccccc1)C(O)(CCN(C)C)c1cccc2ccccc12 (centres unmarked) [Compound 259, 1-(5-(3,6-dihydro-2H-thiopyran-4-yl)-2-methoxypyridin-3-yl)-4-(dimethylamino)-2-(naphthalen-1-yl)-1-phenylbutan-2-ol] |  |  |  |  |  | 4.33 µg/mL (≈ 8.25 µM) | 0.125 µg/mL | > 32 µg/mL | 0.32 µg/mL (≈ 0.61 µM) | > 64 µg/mL |
| CC#Cc1cnc(OC)c(C(c2ccccc2)C(O)(CCN(C)C)c2cccc3ccccc23)c1 (centres unmarked) [Compound 263, 4-(dimethylamino)-1-(2-methoxy-5-prop-1-ynyl-3-pyridyl)-2-(1-naphthyl)-1-phenylbutan-2-ol] |  |  |  |  |  | 2.08 µg/mL (≈ 4.48 µM) | 0.5 µg/mL | > 32 µg/mL | 1.38 µg/mL (≈ 2.97 µM) | > 64 µg/mL |
| COc1ncc(N2CCOCC2)cc1C(c1ccccc1)C(O)(CCN(C)C)c1cccc2ccccc12 (centres unmarked) [Compound 269, 4-(dimethylamino)-1-(2-methoxy-5-morpholinopyridin-3-yl)-2-(naphthalen-1-yl)-1-phenylbutan-2-ol] |  |  |  |  |  | 6.3 µg/mL (≈ 12.3 µM) | 0.25 µg/mL | > 32 µg/mL | 5.64 µg/mL (≈ 11 µM) | 17.4 µg/mL (≈ 34.1 µM) |
| COc1ncc(-c2ccc(Cl)cc2)cc1C(c1ccccc1)C(O)(CCN(C)C)c1cc(F)cc(F)c1 (centres unmarked) [Compound 280, 1-(5-(4-chlorophenyl)-2-methoxypyridin-3-yl)-2-(3,5-difluorophenyl)-4-dimethylamino-1-phenylbutan-2-ol] |  |  |  |  |  | 0.16 µg/mL (≈ 0.306 µM) | 0.0156 µg/mL | > 32 µg/mL | 0.04 µg/mL (≈ 0.0765 µM) | 35 µg/mL (≈ 66.9 µM) |
| COc1ncc(-c2ccc(C(F)(F)F)cc2)cc1C(c1ccccc1)C(O)(CCN(C)C)c1cccc2ccccc12 (centres unmarked) [Compound 285, 4-(dimethylamino)-1-(2-methoxy-5-(4-(trifluoromethyl)phenyl)pyridin-3-yl)-2-(naphthalen-1-yl)-1-phenylbutan-2-ol] |  |  |  |  |  | 0.63 µg/mL (≈ 1.1 µM) | 0.0156 µg/mL | > 32 µg/mL | 0.96 µg/mL (≈ 1.68 µM) | > 64 µg/mL |
| COc1ncc(-c2ccc(Cl)cc2)cc1C(c1ccccc1)C(O)(CCN(C)C)c1cccc(F)c1F (centres unmarked) [Compound 287, 1-(5-(4-chlorophenyl)-2-methoxy-3-pyridyl)-2-(2,3-difluorophenyl)-4-dimethylamino-1-phenylbutan-2-ol] |  |  |  |  |  | 0.16 µg/mL (≈ 0.306 µM) | 0.0312 µg/mL | > 32 µg/mL | 0.04 µg/mL (≈ 0.0765 µM) | > 64 µg/mL |
| COc1ncc(-c2ccc(Cl)cc2)cc1C(c1ccccc1)C(O)(CCN(C)C)c1cccc(F)c1 (centres unmarked) [Compound 297] |  |  |  |  |  | 0.74 µg/mL (≈ 1.47 µM) | 0.0312 µg/mL | > 32 µg/mL | 0.1 µg/mL (≈ 0.198 µM) | 39.1 µg/mL (≈ 77.5 µM) |
| COc1ccc(-c2cnc(OC)c(C(c3ccccc3)C(O)(CCN(C)C)c3cccc4ccccc34)c2)cc1 (centres unmarked) [Compound 299, 4-(dimethylamino)-1-(2-methoxy-5-(4-methoxyphenyl)pyridin-3-yl)-2-(naphthalen-1-yl)-1-phenylbutan-2-ol] |  |  |  |  |  | 0.19 µg/mL (≈ 0.357 µM) | 0.125 µg/mL | > 32 µg/mL | 0.33 µg/mL (≈ 0.62 µM) | > 64 µg/mL |
| COc1ncc(-c2ccc(Cl)c(F)c2)cc1C(c1ccccc1)C(O)(CCN(C)C)c1cccc2ccccc12 (centres unmarked) [Compound 303, 1-(5-(4-chloro-3-fluorophenyl)-2-methoxypyridin-3-yl)-4-(dimethylamino)-2-(naphthalen-1-yl)-1-phenylbutan-2-ol] |  |  |  |  |  | 0.52 µg/mL (≈ 0.937 µM) | 0.0312 µg/mL | > 32 µg/mL | 0.19 µg/mL (≈ 0.342 µM) | > 64 µg/mL |
| COc1ncc(-c2ccc(Br)cc2)cc1C(c1ccccc1)C(O)(CCN(C)C)c1cccc(F)c1F (centres unmarked) [Compound 312, 1-(5-(4-bromophenyl)-2-methoxypyridin-3-yl)-2-(2,3-difluorophenyl)-4-(dimethylamino)-1-phenylbutan-2-ol] |  |  |  |  |  | 0.19 µg/mL (≈ 0.335 µM) | 0.0156 µg/mL | > 32 µg/mL | 0.04 µg/mL (≈ 0.0705 µM) | 31.3 µg/mL (≈ 55.2 µM) |
| COc1ncc(-c2ccc(Br)cc2)cc1C(c1ccccc1)C(O)(CCN(C)C)c1cc(F)cc(F)c1 (centres unmarked) [Compound 316, 1-(5-(4-bromophenyl)-2-methoxypyridin-3-yl)-2-(3,5-difluorophenyl)-4-dimethylamino-1-phenylbutan-2-ol] |  |  |  |  |  | 2.97 µg/mL (≈ 5.23 µM) | 0.0156 µg/mL | > 32 µg/mL | 0.04 µg/mL (≈ 0.0705 µM) | > 64 µg/mL |
| COc1ncc(-c2ccc(Br)cc2)cc1C(c1ccccc1)C(O)(CCN(C)C)c1cccc(F)c1 (centres unmarked) [Compound 319] |  |  |  |  |  | 0.22 µg/mL (≈ 0.4 µM) | 0.0312 µg/mL | > 32 µg/mL | 0.09 µg/mL (≈ 0.164 µM) | 49.2 µg/mL (≈ 89.5 µM) |
| COc1ncc(-c2ccc(Br)cc2)cc1C(c1ccc(Cl)cc1)C(O)(CCN(C)C)c1cccc2ccccc12 (centres unmarked) [Compound 325, 1-(5-(4-bromophenyl)-2-methoxypyridin-3-yl)-1-(4-chlorophenyl)-4-dimethylamino-2-(naphthalen-1-yl)butan-2-ol] |  |  |  |  |  | 0.125 µg/mL (≈ 0.203 µM) | 0.0312 µg/mL | > 32 µg/mL | 0.04 µg/mL (≈ 0.0649 µM) | > 64 µg/mL |
| COc1ncc(-c2ccc(Br)c(F)c2)cc1C(c1ccccc1)C(O)(CCN(C)C)c1cccc2ccccc12 (centres unmarked) [Compound 331, 1-(5-(4-bromo-3-fluorophenyl)-2-methoxypyridin-3-yl)-4-(dimethylamino)-2-(naphthalen-1-yl)-1-phenylbutan-2-ol] |  |  |  |  |  | 4.07 µg/mL (≈ 6.79 µM) | 0.0625 µg/mL | > 32 µg/mL | 0.04 µg/mL (≈ 0.0667 µM) | > 64 µg/mL |
| COc1ncc(C#Cc2ccccc2)cc1C(c1ccccc1)C(O)(CCN(C)C)c1cccc2ccccc12 (centres unmarked) [Compound 337, 4-(dimethylamino)-1-[2-methoxy-5-(2-phenylethynyl)-3-pyridyl]-2-(1-naphthyl)-1-phenyl-butan-2-ol] |  |  |  |  |  | 1.51 µg/mL (≈ 2.87 µM) | 0.25 µg/mL | > 32 µg/mL | 0.14 µg/mL (≈ 0.266 µM) | > 64 µg/mL |
| COc1ncc(-c2ccc(Cl)cc2)cc1C(c1ccccc1)C(O)(CCN(C)C)c1cc(Cl)cc(Cl)c1 (centres unmarked) [Compound 341, 1-(5-(4-chlorophenyl)-2-methoxypyridin-3-yl)-2-(3,5-dichlorophenyl)-4-(dimethylamino)-1-phenylbutan-2-ol] |  |  |  |  |  | 0.23 µg/mL (≈ 0.414 µM) | ≤ 0.0625 µg/mL | > 32 µg/mL | 0.031 µg/mL (≈ 0.0558 µM) | > 64 µg/mL |
| COc1ncc(-c2ccc(F)c(F)c2)cc1C(c1ccccc1)C(O)(CCN(C)C)c1cccc2ccccc12 (centres unmarked) [Compound 347] |  |  |  |  |  | 0.51 µg/mL (≈ 0.947 µM) | 0.0625 µg/mL | > 32 µg/mL | 0.23 µg/mL (≈ 0.427 µM) | > 64 µg/mL |
| COc1ncc(-c2ccc(Cl)cc2)cc1C(c1ccccc1)C(O)(CCN(C)C)c1cccc(Cl)c1 (centres unmarked) [Compound 351, 2-(3-chlorophenyl)-1-(5-(4-chlorophenyl)-2-methoxypyridin-3-yl)-4-(dimethylamino)-1-phenylbutan-2-ol] |  |  |  |  |  | 0.16 µg/mL (≈ 0.307 µM) | 0.0156 µg/mL | > 32 µg/mL | 0.11 µg/mL (≈ 0.211 µM) | 25.5 µg/mL (≈ 48.9 µM) |
| COc1ncc(-c2ccc(Br)cc2)cc1C(c1ccccc1)C(O)(CCN(C)C)c1cccc(Cl)c1 (centres unmarked) [Compound 355, 1-(5-(4-bromophenyl)-2-methoxypyridin-3-yl)-2-(3-chlorophenyl)-4-(dimethylamino)-1-phenylbutan-2-ol] |  |  |  |  |  | 0.21 µg/mL (≈ 0.371 µM) | 0.0156 µg/mL | > 32 µg/mL | 0.17 µg/mL (≈ 0.3 µM) | 53.2 µg/mL (≈ 94.1 µM) |
| COc1ncc(-c2ccc(OC(F)(F)F)cc2)cc1C(c1ccccc1)C(O)(CCN(C)C)c1cccc2ccccc12 (centres unmarked) [Compound 375, 4-(dimethylamino)-1 (2-methoxy-5-(4-(trifluoromethoxy)phenyl)pyridin-3-yl)-2-(naphthalen-1-yl)-1-phenylbutan-2-ol] |  |  |  |  |  | 0.61 µg/mL (≈ 1.04 µM) | 0.0156 µg/mL | > 32 µg/mL | 0.031 µg/mL (≈ 0.0528 µM) | > 64 µg/mL |
